Results: patent US20240025906A1 (NEURON23, INC., priority 2022, published 2024)
pIC50, pKd: −log10 of the molar value. Like-named read-outs stand apart in the source and are kept apart here.

Key:
TYK2 JH2 = target: T1, TYK2 JH2 (Homo sapiens, UniProt P29597); assay: TYK2 JH2 binding assay (KINOMEscan KdELECT competitive binding); details: TYK2 JH2 domain
T1 construct: purchased DiscoverX (KINOMEscan KdELECT service); host or cells: E. coli BL21-derived (T7 phage display) or HEK-293
Method in brief: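 JH2-domain fragment, expressed as T7 phage tag in BL21-derived E. coli or DNA-tagged from HEK-293, competed with test compound against bead-immobilized biotinylated ligand in binding buffer (0.9% DMSO). 1 h shaking at room temperature; bound kinase eluted with 0.5 μM free ligand and quantified by qPCR. Kd from 11-point 3-fold dilutions.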

[1] = system: JAK1/TYK2 pSTAT5 (Tyr694/699) in THP-1 cell line; assay: IFNa-stimulated JAK1/TYK2 pSTAT5 (Tyr694/699) inhibition cellular assay, AlphaLISA; assay type: cell-based; details: Homo sapiens, THP-1 cells, IFNa-stimulated, AlphaLISA (Assay B)
Method in brief: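 pSTAT5 (Tyr694/699) in lysates quantified by AlphaLISA (615 nm) after 30 min IFNa stimulation (100 ng/mL stock) of THP-1 cells. The cells, 2e4 per well in HBSS, had first been exposed 1 h at 37° C. to eight 6-fold compound dilutions, 10000 down to 0.04 nM final. IC50 fitted by 4PL regression, bottom 0, Hill slope −1.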

[2] = KINOMEscan KdELECT (Assay A), read-out: Biochemical TYK2_JH2_Kd
[3] = read-out: Cellular THP1_IFNa-pSTATS_IC50
[4] = DiscoverX KINOMEscan KdELECT (Assay A), read-out: Biochemical TYK2_DiscoverX_JH2_BND_Kd
[5] = read-out: Cellular_THP1_IFNa-pSTATS_TYK2

T1 sequence (P29597 589-875 limits assumed): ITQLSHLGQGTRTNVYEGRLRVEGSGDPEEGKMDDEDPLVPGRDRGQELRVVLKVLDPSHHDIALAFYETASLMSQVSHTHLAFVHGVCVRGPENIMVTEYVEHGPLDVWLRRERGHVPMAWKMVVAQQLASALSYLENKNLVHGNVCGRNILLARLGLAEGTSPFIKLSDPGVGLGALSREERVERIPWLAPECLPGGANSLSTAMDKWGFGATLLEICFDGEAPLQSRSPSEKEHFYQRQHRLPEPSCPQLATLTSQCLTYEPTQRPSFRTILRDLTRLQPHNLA

pKd (TYK2 JH2; [2])	pIC50 [1, 3]	pKd (TYK2 JH2; [4])	pIC50 [1, 5]	Compound
≥ 7.00	< 6.30			O=C(Nc1cc2c(-c3ccccc3)cnc(NCCO)c2cn1)C1CC1 [Example 160, N-(8-((2-hydroxyethyl)amino)-5-phenyl-2,7-naphthyridin-3-yl)cyclopropanecarboxamide]
≥ 7.00	< 6.30			CNc1ncc(-c2ccccc2)c2cc(NC(=O)C3(F)CC3)ncc12 [Example 161, 1-fluoro-N-(8-(methylamino)-5-phenyl-2,7-naphthyridin-3-yl)cyclopropane-1-carboxamide]
6.00 to 7.00	< 6.30			CNc1ncc(-c2ccccc2)c2cc(NC(C)C)ncc12 [Example 162, N^6-isopropyl-N^1-methyl-4-phenyl-2,7-naphthyridine-1,6-diamine]
6.00 to 7.00	< 6.30			CNc1nc(C)cc2cc(NC(=O)C3CC3)ncc12 [Example 163, N-(6-methyl-8-(methylamino)-2,7-naphthyridin-3-yl)cyclopropanecarboxamide]
6.00 to 7.00	< 6.30			C=Cc1cc2cc(NC(=O)C3CC3)ncc2c(NC)n1 [Example 164, N-(8-(methylamino)-6-vinyl-2,7-naphthyridin-3-yl)cyclopropanecarboxamide]
≥ 7.00	< 6.30			CCc1cc2cc(NC(=O)C3CC3)ncc2c(NC)n1 [Example 165, N-(6-ethyl-8-(methylamino)-2,7-naphthyridin-3-yl)cyclopropanecarboxamide]
≥ 7.00	< 6.30			CNc1ncc(-c2ccc(-n3cccn3)cc2)c2cc(NC(=O)C3CC3)ncc12 [Example 166, N-(5-(4-(1H-pyrazol-1-yl)phenyl)-8-(methylamino)-2,7-naphthyridin-3-yl)cyclopropanecarboxamide]
≥ 7.00	≥ 6.30			CNc1ncc(/C=C/c2cccc(OC)c2)c2cc(NC(=O)C3CC3)ncc12 [Example 167, (E)-N-(5-(3-methoxystyryl)-8-(methylamino)-2,7-naphthyridin-3-yl)cyclopropanecarboxamide]
≥ 7.00	< 6.30			CNc1ncc(-c2cccc(COC)c2)c2cc(NC(=O)C3CC3)ncc12 [Example 168, N-(5-(3-(methoxymethyl)phenyl)-8-(methylamino)-2,7-naphthyridin-3-yl)cyclopropanecarboxamide]
≥ 7.00	< 6.30			CNc1ncc(-c2ccc(COC)cc2)c2cc(NC(=O)C3CC3)ncc12 [Example 169, N-(5-(4-(methoxymethyl)phenyl)-8-(methylamino)-2,7-naphthyridin-3-yl)cyclopropanecarboxamide]
≥ 7.00	≥ 6.30			CNc1ncc(-c2ccc(C(=O)N(C)C)cc2)c2cc(NC(=O)C3CC3)ncc12 [Example 170, 4-(6-(cyclopropanecarboxamido)-1-(methylamino)-2,7-naphthyridin-4-yl)-N,N-dimethylbenzamide]
≥ 7.00	≥ 6.30			CNc1ncc(-c2ccc(-c3ccccn3)cc2)c2cc(NC(=O)C3CC3)ncc12 [Example 171, N-(8-(methylamino)-5-(4-(pyridin-2-yl)phenyl)-2,7-naphthyridin-3-yl)cyclopropanecarboxamide]
≥ 7.00	< 6.30			CNc1ncc(-c2cccc(COCCOC)c2)c2cc(NC(=O)C3CC3)ncc12 [Example 172, N-(5-(3-((2-methoxyethoxy)methyl)phenyl)-8-(methylamino)-2,7-naphthyridin-3-yl)cyclopropanecarboxamide]
≥ 7.00	≥ 6.30			CNc1ncc(-c2ccc(-c3ccnn3C)cc2)c2cc(NC(=O)C3CC3)ncc12 [Example 173, N-(5-(4-(1-methyl-1H-pyrazol-5-yl)phenyl)-8-(methylamino)-2,7-naphthyridin-3-yl)cyclopropanecarboxamide]
6.00 to 7.00	< 6.30			C=C(c1ccccc1OC)c1cnc(NC)c2cnc(NC(=O)C3CC3)cc12 [Example 175]
6.00 to 7.00	< 6.30			CNc1nccc2cc(NC(=O)C3CC3)nnc12 [Example 176, N-(8-(methylamino)pyrido[3,4-c]pyridazin-3-yl)cyclopropanecarboxamide]
≥ 7.00	< 6.30			CNc1ncc(Br)c2cc(NC(=O)C3CC3)nnc12 [Example 177, N-(5-bromo-8-(methylamino)pyrido[3,4-c]pyridazin-3-yl)cyclopropanecarboxamide]
≥ 7.00	< 6.30			CNc1ncc(-c2ccccc2)c2cc(NC(=O)C3CC3)nnc12 [Example 178, N-(8-(methylamino)-5-phenylpyrido[3,4-c]pyridazin-3-yl)cyclopropanecarboxamide]
≥ 7.00	≥ 6.30			CNc1ncc(-c2nc3ccc(F)cc3o2)c2cc(NC(=O)C3CC3)ncc12 [Example 179, N-(5-(6-fluorobenzo[d]oxazol-2-yl)-8-(methylamino)-2,7-naphthyridin-3-yl)cyclopropanecarboxamide]
≥ 7.00	≥ 6.30			CNc1ncc(-c2nc3c(OC)cccc3o2)c2cc(NC(=O)C3CC3)ncc12 [Example 180, N-(5-(4-methoxybenzo[d]oxazol-2-yl)-8-(methylamino)-2,7-naphthyridin-3-yl)cyclopropanecarboxamide]
≥ 7.00	≥ 6.30			CNc1ncc(-c2nc3cc(F)ccc3o2)c2cc(NC(=O)C3CC3)ncc12 [Example 181, N-(5-(5-fluorobenzo[d]oxazol-2-yl)-8-(methylamino)-2,7-naphthyridin-3-yl)cyclopropanecarboxamide]
≥ 7.00	≥ 6.30			CNc1ncc(-c2nc3c(F)cccc3o2)c2cc(NC(=O)C3CC3)ncc12 [Example 184, N-(5-(4-fluorobenzo[d]oxazol-2-yl)-8-(methylamino)-2,7-naphthyridin-3-yl)cyclopropanecarboxamide]
≥ 7.00	≥ 6.30			CNc1ncc(-c2nc3cc(N4CCC4)ccn3n2)c2cc(NC(=O)C3CC3)ncc12 [Example 188, N-(5-(7-(azetidin-1-yl)-[1,2,4]triazolo[1,5-a]pyridin-2-yl)-8-(methylamino)-2,7-naphthyridin-3-yl)cyclopropanecarboxamide]
		≥ 7.00	≥ 6.30	[2H]C([2H])([2H])Oc1ccc2oc(-c3cnc(NC)c4cnc(NC(=O)C5CC5)cc34)nc2c1 [Example 195, N-(5-(5-(methoxy-d3)benzo[d]oxazol-2-yl)-8-(methylamino)-2,7-naphthyridin-3-yl)cyclopropanecarboxamide]
		≥ 7.00	≥ 6.30	CNc1ncc(-c2nc3cc(OC4CN(C(=O)OC(C)(C)C)C4)ccc3o2)c2cc(NC(=O)C3CC3)ncc12 [Example 196, tert-butyl 3-((2-(6-(cyclopropanecarboxamido)-1-(methylamino)-2,7-naphthyridin-4-yl)benzo[d]oxazol-5-yl)oxy)azetidine-1-carboxylate]
		≥ 7.00	≥ 6.30	CNc1ncc(-c2nc3cc(OC4CNC4)ccc3o2)c2cc(NC(=O)C3CC3)ncc12 [Example 197, N-(5-(5-(azetidin-3-yloxy)benzo[d]oxazol-2-yl)-8-(methylamino)-2,7-naphthyridin-3-yl)cyclopropanecarboxamide]
		≥ 7.00	≥ 6.30	CNc1ncc(-c2nc3cc(OC4CN(C)C4)ccc3o2)c2cc(NC(=O)C3CC3)ncc12 [Example 198, N-(8-(methylamino)-5-(5-((1-methylazetidin-3-yl)oxy)benzo[d]oxazol-2-yl)-2,7-naphthyridin-3-yl)cyclopropanecarboxamide]
		≥ 7.00	≥ 6.30	CNc1ncc(-c2nc3c(COC)cccc3o2)c2cc(NC(=O)C3CC3)ncc12 [Example 201, N-(5-(4-(methoxymethyl)benzo[d]oxazol-2-yl)-8-(methylamino)-2,7-naphthyridin-3-yl)cyclopropanecarboxamide]
		≥ 7.00	≥ 6.30	CNc1ncc(-c2nc3cc(OC)c(OC)cc3o2)c2cc(NC(=O)C3CC3)ncc12 [Example 202, N-(5-(5,6-dimethoxybenzo[d]oxazol-2-yl)-8-(methylamino)-2,7-naphthyridin-3-yl)cyclopropanecarboxamide]
		≥ 7.00	≥ 6.30	CNc1ncc(-c2nc3ccc(OC)cc3o2)c2cc(NC(=O)C3CC3)ncc12 [Example 203, N-(5-(6-methoxybenzo[d]oxazol-2-yl)-8-(methylamino)-2,7-naphthyridin-3-yl)cyclopropanecarboxamide]

Compound	pKd (TYK2 JH2; [2])	pIC50 [1, 3]	pKd (TYK2 JH2; [4])	pIC50 [1, 5]
CNc1ncc(-c2nc3cc(O[C@H]4C[C@H](OC)C4)ccc3o2)c2cc(NC(=O)C3CC3)ncc12 [Example 199, N-(5-(5-((1r,3r)-3-methoxycyclobutoxy)benzo[d]oxazol-2-yl)-8-(methylamino)-2,7-naphthyridin-3-yl)cyclopropanecarboxamide]			≥ 7.00	≥ 6.30
CNc1ncc(-c2nc3cc(O[C@H]4C[C@@H](OC)C4)ccc3o2)c2cc(NC(=O)C3CC3)ncc12 [Example 200, N-(5-(5-((1s,3s)-3-methoxycyclobutoxy)benzo[d]oxazol-2-yl)-8-(methylamino)-2,7-naphthyridin-3-yl)cyclopropanecarboxamide]			≥ 7.00	≥ 6.30
